Test results from patent publication US20190038597A1, “PREVENTION OF VASCULAR AND CARDIAC FIBROSIS VIA IRE1ALPHA INHIBITION” (McMaster University, priority 2017, published 2019).

Tests used:
[1] = system: SHR/L-NAME model of hypertension; assay: Vascular stiffness by wire myograph in L-NAME-treated SHRs; format: in vivo, rat; details: L-NAME+4μ8c group, 18 days, maximally relaxed vessels
Experimental: 12-14 week old male SHRs were randomized to receive vehicle, L-NAME (50 mg/L) or L-NAME and 4μ8c (2.5 mg/kg/day i.p.) for 18 days. Aortas and carotid arteries were removed at sacrifice for mechanical and structural analysis. (A) Picro-Sirius Red staining of aorta and carotid artery sections (B) Determination of soluble collagen content in aorta and carotid arteries by Picro-Sirius Red-based assay. Stress-strain curves (C,E), elastic modulus-stress lines (D,F) and the slope of the elastic modulus-stress lines (G,H) were calculated. Data is presented as mean±SEM. *, p<0.05 vs. NT; #, p<0.05 vs. L-NAME. N≥4 per group; 2-5 segments of the thoracic aorta were analyzed per animal. […]
Vessels were mounted on a steel wire myograph and incubated in Ca^2±-free Hank's Basic Salt Solution containing 100 μM sodium nitroprusside to ensure maximum relaxation. […] Images of the vessels at each incremental tension were captured and lumen diameters were measured with ImageJ software. Circumferential stress (a) was calculated as F/tl, where F is the tension in the vessel wall, t is the radial thickness of the vessel wall and 1 is the axial length of the aortic ring. Circumferential strain (c) was calculated as (D−D0)/D0 where D is the lumen diameter at a given tension and D0 is the initial diameter under maximally relaxed conditions. […]

[2] = system: GRP78, GRP94 and PDI; assay: Western blot of ER chaperone / ER stress marker expression in VSMCs; format: cell-based, rat
Experimental: VSMCs were treated with tunicamycin (1 μg/ml) and either 4μ8c (30 μM) or STF-083010 (60 μM) for 6 h or 24 h. (A) Agarose gel for assessment of XBP1 splicing after 6 h of treatment with tunicamycin and densitometric quantification. (B) Western blot for assessment of ER chaperone expression after 24 h tunicamycin treatment with or without inhibition of IRE1α by 4μ8c. Data is presented as mean±SEM. *, p<0.05 vs. Vehicle; #, p<0.05 vs. Tm.
VSMCs were cultured in DMEM/F12 containing 1% FBS. Confluent cells were treated with L-ascorbic acid-2-phosphate (100 μg/ml) and either TGF-β1 (5 ng/ml) or Ang II (1 μM). (A) Agarose gel for assessment of TGF-β1-induced XBP1 splicing in VSMCs after 24 h. (B) Picro-Sirius Red assay for measurement of collagen deposition induced by combined TGF-β1 and AA2P treatment after 72 h, and inhibition by 4μ8c and STF-083010. (C) Western blot for assessment of collagen chaperone expression after treatment of TGF-β1 and 4μ8c for 48 h. *, p<0.05. (D) Measurement of Ang II-induced collagen production and inhibition by 4μ8c and STF-083010 after 72 h.
VSMCs were isolated from the aortas of 5-week old WKY rats using the explant method^29. The thoracic aorta was removed from the animal and placed in ice-cold 5× Antibiotics-Antimycotics solution (ThermoFisher). The adventitia was gently removed and the aorta was cut longitudinally. The endothelial layer was removed by gentle scraping with forceps. The aorta was cut into 3 mm^2 squares and placed on a 6 well plate in DMEM/F12 medium containing 10% fetal bovine serum (FBS). Explants were incubated undisturbed in a 5% CO2 incubator at 37° C. for 1 week and then passaged. […]
Cells were lysed in 1× Laemmli buffer and protein content was quantified using the BioRad DC Protein Assay (BioRad, Mississauga, Canada). […]

Compound: Cc1cc(=O)oc2c(C=O)c(O)ccc12 [4μ8c, 7-Hydroxy-4-methyl-2-oxo-2H-chromene-8-carbaldehyde]
- slope of the elastic modulus-stress line, carotid artery [1]: 14.42±0.59
- slope of the incremental elastic modulus versus stress line, aorta [1]: 3.970±0.129
- elevated expression levels of ER stress markers GRP78, GRP94 and PDI ([2]; 24 h tunicamycin treatment, FIG. 1B): reduced
- TGF-β1-increased expression of collagen chaperones and ER stress markers GRP78, GRP94 and PDI ([2]; TGF-β1 48 h, FIG. 2C): lowered
